Legend:
Conditions in all cases: relative to human proinsulin = 1
[1] = tested on: insulin receptor (125I-labeled insulin binding to isolated fat cells); assay: Isolated Fat Cell Radioreceptor Assay
Description: Isolated fat cells were prepared by a modification [Huber, C. T., Solomon, S. S., and Duckworth, W. C., J. Clin. Invest. […] All incubations were in Krebs-Ringer-Hepes (KRH) buffer, pH 7.4, with 4% bovine serum albumin (BSA) in a total volume of 2 ml. […] At selected times, triplicate 300 μl aliquots were removed and added to microfuge tubes containing 100 μl dinonyl phthalate [see Gliemann, J., Osterlind, K., Vinten, J., and Gammeltoft, S., Biochem. Biophys. Acta. […] After centrifugation for one minute in a microfuge, the tubes were cut through the oil layer, and the cell pellet was counted using a gamma counter to determine binding.

[2] = tested on: insulin receptor (125I-insulin binding to IM-9 cells); assay: IM-9 Radioreceptor Assay
Description: IM-9 cells were grown in RPMI media containing 2mM glutamine, 25 mM HEPES, and 10% fetal bovine serum. […] Incubations were carried out in 1.5 ml microfuge tubes at 15° C. for two hours. Concentrations of stock solutions containing insulin, proinsulin, or compound of this invention used in the binding studies were established by amino acid analysis and by their absorbance at 276 nm. The cells were resuspended during the assay every 30 minutes by inverting the tubes several times. At the end of the incubation, the tubes were centrifuged for one minute in a Beckman Microfuge, the supernatant was aspirated, the tips of the tubes containing the cell pellet were excised, and the radioactivity was measured.

isolated rat adipocytes = assay: Biological Activity in Isolated Rat Adipocytes (incorporation of 2-3H-glucose in total fat cell lipid); assay type: cell-based
Description: Adipocytes were prepared from epididymal fat pads by a modification (Huber, supra) of the collagenase digestion procedure of Rodbell, supra. Krebs-Ringer-HEPES (KRH) buffer, pH 7.4, containing 4% bovine serum albumin and 0.55 mM glucose was used in all isolation and incubation steps.
Biological activity was assessed according to the method of Moody, A. J., Stan, M. A., Stan, M., and Glieman, J., Horm. Metab. Res. 6, 12-16 (1974) by monitoring the incorporation of 2-^3 H-glucose in total fat cell lipid. […] Radioactivity was determined in a Searle Isocap 300 liquid scintillation counter at an efficiency of approximately 30%. Blanks were prepared in which the scintillation fluid was added to the vials prior to the addition of cells. The average counts obtained from these vials were subtracted from those observed in all other samples.
Competitive binding curves and biological activity dose-response curves were analyzed using the PREFIT and ALLFIT programs [DeLean, A., Munson, P. J., and Rodbard, D., Am. J. Physiol. 235, E97-E102 (1978)] based on a four-parameter logistic model. These analyses indicated the concentration of insulin or proinsulin necessary to produce a half-maximal response, as well as the maximal and minimal values. All values are presented as the mean ± SEM.

Measured: Relative Potency

Human Proinsulin
1: [1] | [2] | isolated rat adipocytes

Source: US4569792A, “Anti-diabetic compounds” (Eli Lilly and Company, priority 1984, dated 1986)
